The results in this text go back to article PMC7463460, “Structure and Antiparasitic Activity Relationship of Alkylphosphocholine Analogues against Leishmania donovani” (Microorganisms, 2020).

Several values for one entry are separate records, joined by “and”; a condition that tells them apart may be missing. Identical values can stand only once. Like-named read-outs stand apart in the source and are kept apart here.

The subject of data set [1] is L. donovani LV82 intracellular amastigotes. Kind of data set: Intracellular amastigote assay in bone-marrow-derived macrophages, strain LV82. The data set is classed as cell-based, Leishmania donovani. The settings on record: for IC50 / IC90: Leishmania donovani, Macrophage; for IC50: in Mus musculus, 72 h; for IC90: LV82; for Selectivity Index (SI50): macrophage CC50 / LV82 intracellular amastigote IC50. The protocol:
(§1) In the macrophage studies, the method described in previous studies was used as follows. […] It is possible that intracellular macrophage parasites could have been at different developmental stages at 24 h post-infection. […] Therefore, we assumed that the effect of compounds on the amastigote stage rather than the promastigotes stage was determined in in vitro macrophage studies.
(§2) The plate was incubated for a further 24 h, the medium removed, and each well washed with PBS to eliminate non-internalized parasites, which were monitored microscopically. […] Wells with macrophage and with no drug or promastigotes added were used in control experiments.
(§3) Luciferin solution (1 µg/mL in 20 µL medium without FCS) was added to the appropriate wells of the 96-well plate at the end of the experiment and the amount of light emitted/well was measured using a luminometer (Biotek Synergy HT, relative light units) using a wavelength/bandwidth of 440/40 nm, or IVIS® imaging (Spectrum Living Image system®, total flux, photons/sec).
(§4) The effect of drug treatment on parasite survival was determined by calculating the mean suppression in the light emitted from the drug-treated experimental sample compared to the mean control value and used to calculate the IC50 using Grafit® software (version 5.0, Erithacus Software, East Grinstead, West Sussex, UK). The effect of drug alone on the viability of uninfected macrophages was determined using the same experimental protocol above, but cell viability was determined using an alamar blue colorimetric assay. […] The effect of drug treatment on cell survival, which correlates with the magnitude of dye reduction, was expressed as percentage viability (or alamar blue reduction) and determined using the formula provided in the manufacturer’s protocol % alamar blue reduction=(εoxλ)(Aλ1)−(εoxλ1)(Aλ2)/(εredλ1)(A^′λ2)−(εredλ2)(A^′λ1)x100

In data set [2] the test system is L. donovani 282/4 (Sb-sensitive) intracellular amastigotes. The data set can be described thus: Intracellular amastigote assay, Sb-sensitive strain 282/4. The data set is classed as cell-based, Leishmania donovani. To be noted: strain 282/4, Sb-sensitive; for IC50: Leishmania donovani; for Selectivity Index (SI50): macrophage CC50 / amastigote IC50.
Excerpt: (§5) L. donovani cloned strains with different Sb susceptibility backgrounds were derived from isolates obtained from VL patients at the B.P. Koirala Institute of Health Sciences, Dharan, Nepal: MHOM/NP/02/BPK282/0cl4 (Sb sensitive, Sb-S). MHOM/NP/02/BPK087/0cl11 (Sb intermediate, Sb-I) and MHOM/NP/02/BPK275/0cl18 (Sb resistance, Sb-R [13]). In addition, Milt-resistant parasites raised against these three Sb sensitivity backgrounds and the Sb-sensitive strain (MHOM/ET/67:LV82) was also used in studies. Luciferase expressing promastigotes for the LV82 and Nepalese strains were prepared using previously published methods and the integrative construct (a gift from Dr D.F. Smith), designated pGL1313, contained pSSU-int fragments to facilitate integration into the ribosomal RNA locus of Leishmania.
as §1, §2, §3, §4

The test system of data set [3] is L. donovani 087/11 (Sb-intermediate) intracellular amastigotes. Kind of data set: Intracellular amastigote assay, Sb-intermediate strain 087/11. The data set is classed as cell-based, Leishmania donovani. To be noted: for IC50: Leishmania donovani, read-out: Mean IC50 Amastigotes; for Cross-Resistance Index (CRI50) Amast: strain 087/11, Sb-intermediate vs Sb-S; for Selectivity Index (SI50): strain 087/11, Sb-intermediate, macrophage CC50 / amastigote IC50.
Excerpt: as §5
In the macrophage studies, the method described in previous studies was used as follows. Briefly, bone-marrow-derived BALB/c macrophages (1–2 × 10^5) in 100 µL complete RPMI 1640 medium were added to the wells of a 96 well plate and left to adhere for 24 h at 37 °C, 5% CO₂/95% air. The medium was removed and 100 µL of the appropriate L. donovani luciferase-expressing promastigotes line (parasite: host cell ratio 1:10, 1:20 or 1:40) was added to each well, the ratio used reflected the infectivity of the strain and ensured that control data gave a bioluminescent signal within the same range. […] The variability in infectivity complicates strain to strain comparisons, but we decided to focus on achieving good infection levels in controls so that the effect of drug treatment could be determined. It is possible that intracellular macrophage parasites could have been at different developmental stages at 24 h post-infection. […] Therefore, we assumed that the effect of compounds on the amastigote stage rather than the promastigotes stage was determined in in vitro macrophage studies.
The plate was incubated for a further 24 h, the medium removed, and each well washed with PBS to eliminate non-internalized parasites, which were monitored microscopically. When the wells were devoid of external parasites, 100 µL of the medium alone (control) or appropriate APC compound was then added (0.01–0.197 µg/mL, n = 3/treatment). […]. All plates were incubated for 72 h at 37 °C, 5% CO₂/95% air. Wells with macrophage and with no drug or promastigotes added were used in control experiments.
as §3
The effect of drug treatment on parasite survival was determined by calculating the mean suppression in the light emitted from the drug-treated experimental sample compared to the mean control value and used to calculate the IC50 using Grafit® software (version 5.0, Erithacus Software, East Grinstead, West Sussex, UK). The effect of drug alone on the viability of uninfected macrophages was determined using the same experimental protocol above, but cell viability was determined using an alamar blue colorimetric assay. At the end of the incubation period, cells’ 10 µL resazurin solution (0.02% w/v) was added to control and drug treated cells and the absorbance of samples was read at 575 and 595 nm. The effect of drug treatment on cell survival, which correlates with the magnitude of dye reduction, was expressed as percentage viability (or alamar blue reduction) and determined using the formula provided in the manufacturer’s protocol % alamar blue reduction=(εoxλ)(Aλ1)−(εoxλ1)(Aλ2)/(εredλ1)(A^′λ2)−(εredλ2)(A^′λ1)x100 […]

The nature of data set [4]: Cytotoxicity against uninfected macrophages (alamar blue). Format: cell-based, BALB/c mice. The settings on record: BALB/c, mouse, read-out: Macrophage mean IC50 (CC50) (converted). The procedure:
The effect of drug treatment on parasite survival was determined by calculating the mean suppression in the light emitted from the drug-treated experimental sample compared to the mean control value and used to calculate the IC50 using Grafit® software (version 5.0, Erithacus Software, East Grinstead, West Sussex, UK). The effect of drug alone on the viability of uninfected macrophages was determined using the same experimental protocol above, but cell viability was determined using an alamar blue colorimetric assay. At the end of the incubation period, cells’ 10 µL resazurin solution (0.02% w/v) was added to control and drug treated cells and the absorbance of samples was read at 575 and 595 nm. The effect of drug treatment on cell survival, which correlates with the magnitude of dye reduction, was expressed as percentage viability (or alamar blue reduction) and determined using the formula provided in the manufacturer’s protocol % alamar blue reduction=(εoxλ)(Aλ1)−(εoxλ1)(Aλ2)/(εredλ1)(A^′λ2)−(εredλ2)(A^′λ1)x100
In the formula, ελ1 and ελ2 are constants representing the molar extinction coefficient of alamar blue at 575 and 595 nm, respectively, in the oxidized (εox) and reduced (εred) forms. Aλ1, Aλ2 and A’λ1, A’λ2 represent absorbance of test and negative control wells at 575 and 595 nm, respectively. The values of % alamar blue reduction (or % viability) were corrected for background values of negative controls containing medium without cells. Percent viability values were used to calculate the IC50 using Grafit® software (version 5.0).

[5] abbreviates: LV82, intracellular in BALB/c macrophages, 3 days, 37 °C.
Setting [6] is: uninfected bone-marrow-derived macrophages.

As usually defined, the IC50 is the concentration that inhibits the measured activity by half. As a reminder, the IC90 is the concentration needed for an effect of 90%. As to `CCCCCCCCCCCCOP(=O)([O-])OCC[N+](C)(C)C` [APC12, dodecylphosphocholine], in data set [1] (setting [5]), the “Amastigote mean IC50” value is reported as 0.01 ± 0.00 µg/mL; the IC50 is 0.009 µg/mL and 26 nM. For the same compound, in data set [1], the concentration for an effect of 90% (IC90) is 0.081 ± 0.01 µg/mL and the “Selectivity Index (SI50)” value stood at 3870.77. Moreover, the “fold more active than Milt (APC16)” value in data set [1] (intracellular amastigotes) amounted to 4 fold. In data set [2], the half-maximal inhibitory concentration (IC50) is 0.26 µg/mL and 740 nM; the “Selectivity Index (SI50)” value was 136.08. In data set [3], the IC50 was 0.2 µg/mL and 570 nM; the “Cross-Resistance Index (CRI50) Amast” value is given as 0.77; the “Selectivity Index (SI50)” value stood at 176.90. Further, in data set [4] (setting [6]), the IC50 at 3 days was 35.4 µg/mL and 101 µM.
Turning to `CCCCCCCCCCCCCCOP(=O)([O-])OCC[N+](C)(C)C` [APC14, tetradecylphosphocholine], the IC50 in data set [1] (setting [5]) is 0.03 µg/mL and 66 nM; in data set [2], 0.12 µg/mL and 320 nM; in data set [3], 0.19 µg/mL and 500 nM. Further, the “Selectivity Index (SI50)” value in data set [1] is 1632.58; in data set [2], 340.75; in data set [3], 215.21. Besides, the “Cross-Resistance Index (CRI50) Amast” value in data set [3] was found to be 1.58. Also, the IC50 at 3 days in data set [4] (setting [6]) is 40.9 µg/mL and 108 µM.
`CCCCCCCCCCCCCCCCOP(=O)([O-])OCC[N+](C)(C)C` [APC16, hexadecylphosphocholine, reference compound]: the 50% inhibitory concentration (IC50) in data set [1] (setting [5]) is 0.1 µg/mL and 250 nM; in data set [2] it was 0.31 µg/mL and 760 nM; in data set [3], 0.29 µg/mL and 710 nM. Moreover, the IC90 in data set [1] amounted to 0.9 ± 0.016 µg/mL. In addition, the concentration for half-maximal inhibition (IC50) at 3 days in data set [4] was 5.08 µg/mL and 12.5 µM.
